This is an account of results in patent publication US8138173B2, “Pyrazolo[3,4-C]quinolines, pyrazolo[3,4-C]naphthyridines, analogs thereof, and methods” (3M Innovative Properties Company, priority 2005, dated 2012).

SMILES strings stand for the structures. Where a name gives a salt, the structure may show the parent alone. A value given as a limit tells only on which side of the number the result lay.

In turn, `CC(C)Cc1c2c(nn1C)c(O)nc1ccccc12` [Example 27, 1-Isobutyl-2-methyl-2H-pyrazolo[3,4-c]quinolin-4-ol] had a melting point greater than 280 °C.

In the case of `CCc1c2c(nn1-c1ccccc1)c(=O)[nH]c1ccccc12` [Example 14, 1-Ethyl-2-phenyl-2,5-dihydro-4H-pyrazolo[3,4-c]quinolin-4-one], the melting point was in the range of 331 to 334 °C.

`Cc1c2c(nn1-c1ccccc1)c(=O)[nH]c1ccccc12` [Example 11, 1-Methyl-2-phenyl-2,5-dihydro-4H-pyrazolo[3,4-c]quinolin-4-one] registered a melting point greater than 250 °C.

Take `O=c1[nH]c2ccccc2c2c(CCO)n(-c3ccccc3)nc12` [Example 20, 1-(2-Hydroxyethyl)-2-phenyl-2,5-dihydro-4H-pyrazolo[3,4-c]quinolin-4-one]: the melting point fell in the range of 310 to 312 °C.

The compound `O=c1[nH]c2ccccc2c2c(CCN3CCN(Cc4ccccc4)CC3)n(-c3ccccc3)nc12` [Example 24, 1-[2-(4-Benzylpiperazin-1-yl)ethyl]-2-phenyl-2,5-dihydro-4H-pyrazolo[3,4-c]quinolin-4-one] came in with a melting point of 211 to 212.5 °C.

In turn, `CC(C)(C)n1nc2c(=O)[nH]c3ccccc3c2c1CO` [Example 26, 2-tert-Butyl-1-(hydroxymethyl)-2,5-dihydro-4H-pyrazolo[3,4-c]quinolin-4-one] showed a melting point of 295 to 297 °C.

As for `CCc1c2c(nn1-c1ccccc1)c(Cl)nc1ccccc12` [Example 15, 4-Chloro-1-ethyl-2-phenyl-2H-pyrazolo[3,4-c]quinoline], the melting point fell in the range of 207 to 209 °C.

`O=C(Cc1c2c(nn1-c1ccccc1)c(Cl)nc1ccccc12)N1CCN(Cc2ccccc2)CC1` had a melting point of 210.5 to 211.5 °C.

`CCOC(=O)Cc1c2c(nn1CC)c(=O)[nH]c1ccccc12` [Example 17, Ethyl (2-ethyl-4-oxo-4,5-dihydro-2H-pyrazolo[3,4-c]quinolin-1-yl)acetate] displayed a melting point of 233 to 235 °C.

Take `Cc1c2c(nn1-c1ccccc1)c(Cl)nc1ccccc12` [Example 12, 4-Chloro-1-methyl-2-phenyl-2H-pyrazolo[3,4-c]quinoline]: the melting point was 208 to 209 °C.

Compound `CC(C)(C)OC(=O)N1CCC(CC(O)c2c3c(nn2-c2ccccc2)c(=O)[nH]c2ccccc23)CC1` (stereo not shown) [Example 8, tert-Butyl 4-[2-hydroxy-2-(4-oxo-2-phenyl-4,5-dihydro-2H-pyrazolo[3,4-c]quinolin-1-yl)ethyl]piperidine-1-carboxylate] gave a melting point of 253 to 254 °C.

On to `O=c1[nH]c2ccccc2c2c(C(O)CC3CCNCC3)n(-c3ccccc3)nc12` (stereo not shown) [Example 9, 1-(1-Hydroxy-2-piperidin-4-ylethyl)-2-phenyl-2,5-dihydro-4H-pyrazolo[3,4-c]quinolin-4-one], for which the melting point fell in the range of 258 to 261 °C.

Take `CCCc1c2c(nn1-c1ccccc1)c(=O)[nH]c1ccccc12` [Example 28, 2-Phenyl-1-propyl-2,5-dihydro-4H-pyrazolo[3,4-c]quinolin-4-one]: the melting point was greater than 300 °C.

In turn, `CCCCc1c2c(nn1-c1ccccc1)c(Cl)nc1ccccc12` [Example 16, 1-Butyl-4-chloro-2-phenyl-2H-pyrazolo[3,4-c]quinoline] returned a melting point of 239 to 243 °C.

Regarding `CCCn1nc2c(O)nc3ccccc3c2c1CC(C)(C)O` [Example 29, 1-(2-Hydroxy-2-methylpropyl)-2-propyl-2H-pyrazolo[3,4-c]quinolin-4-ol], the melting point was 294 to 296 °C.

Compound `Cc1c2c(cnc3ccccc32)nn1-c1ccccc1` [Example 13, 1-Methyl-2-phenyl-2H-pyrazolo[3,4-c]quinoline] showed a melting point of 128 to 130 °C.

In turn, `O=C(Cc1c2c(nn1-c1ccccc1)c(=O)[nH]c1ccccc12)N1CCN(Cc2ccccc2)CC1` yielded a melting point of 283 to 285 °C.

Turning to `CCCn1nc2c(Cl)nc3ccccc3c2c1C` [Example 1, 4-Chloro-1-methyl-2-propyl-2H-pyrazolo[3,4-c]quinoline], the melting point was 145 to 147 °C.

`O=c1[nH]c2ccccc2c2c(CCC3CCNCC3)n(-c3ccccc3)nc12` [Example 6, 2-Phenyl-1-(2-piperidin-4-ylethyl)-2,5-dihydro-4H-pyrazolo[3,4-c]quinolin-4-one] returned a melting point of 250 to 252 °C.

For `CCOC(=O)Cc1c2c(nn1-c1ccccc1)c(=O)[nH]c1ccccc12` [Example 18, Ethyl (4-oxo-2-phenyl-4,5-dihydro-2H-pyrazolo[3,4-c]quinolin-1-yl)acetate], the melting point lay within 301 to 303 °C.

Compound `Clc1nc2ccccc2c2c(CCC3CCNCC3)n(-c3ccccc3)nc12` (as salt: HCl) [Example 7, 4-Chloro-2-phenyl-1-(2-piperidin-4-ylethyl)-2H-pyrazolo[3,4-c]quinoline] returned a melting point of 194 °C.

Consider `Clc1nc2ccccc2c2c(CCN3CCN(Cc4ccccc4)CC3)n(-c3ccccc3)nc12` [Example 23, 1-[2-(4-Benzylpiperazin-1-yl)ethyl]-4-chloro-2-phenyl-2H-pyrazolo[3,4-c]quinoline], for which the melting point lay in the range of 75 to 77 °C.

As for `O=c1[nH]c2ccccc2c2c(C(O)CC3CCCCC3)n(-c3ccccc3)nc12` (stereo not shown) [Example 10, 1-(2-Cyclohexyl-1-hydroxyethyl)-2-phenyl-2,5-dihydro-4H-pyrazolo[3,4-c]quinolin-4-one], the melting point fell in the range of 254 to 259 °C.

For the compound `CCn1nc2c(OC)nc3ccccc3c2c1CO` [Example 5, (2-Ethyl-4-methoxy-2H-pyrazolo[3,4-c]quinolin-1-yl)methanol], the melting point lay within 219 to 220 °C.

`CC(C)(C)OC(=O)N1CCC(CCc2c3c(nn2C(C)(C)C)c(=O)[nH]c2ccccc23)CC1` [Example 25, tert-Butyl 4-[2-(2-tert-butyl-4-oxo-4,5-dihydro-2H-pyrazolo[3,4-c]quinolin-1-yl)ethyl]piperidine-1-carboxylate]: the melting point fell in the range of 223 to 225 °C.
